In US9464084B2, “P2X7 modulators” (Janssen Pharmaceutica NV, priority 2013, dated 2016):

Experiments:
[1] = target: T1, P2X7 (Homo sapiens (Human), UniProt Q99572); assay: P2X7 antagonism in human PBMCs (LPS + Bz-ATP induced IL-1β release, ELISA); type: cell-based; conditions: LPS 30 ng/ml, Bz-ATP 0.5 mM; for PBMC 10 μM (% control): compound 10 μM; for PBMC 1 μM (% control): compound 1 μM;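 as to all read-outs here: PBMCs from donor human blood, with a further 1.5 h incubation of the cells in the assay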
T1 sequence (Q99572 whole entry): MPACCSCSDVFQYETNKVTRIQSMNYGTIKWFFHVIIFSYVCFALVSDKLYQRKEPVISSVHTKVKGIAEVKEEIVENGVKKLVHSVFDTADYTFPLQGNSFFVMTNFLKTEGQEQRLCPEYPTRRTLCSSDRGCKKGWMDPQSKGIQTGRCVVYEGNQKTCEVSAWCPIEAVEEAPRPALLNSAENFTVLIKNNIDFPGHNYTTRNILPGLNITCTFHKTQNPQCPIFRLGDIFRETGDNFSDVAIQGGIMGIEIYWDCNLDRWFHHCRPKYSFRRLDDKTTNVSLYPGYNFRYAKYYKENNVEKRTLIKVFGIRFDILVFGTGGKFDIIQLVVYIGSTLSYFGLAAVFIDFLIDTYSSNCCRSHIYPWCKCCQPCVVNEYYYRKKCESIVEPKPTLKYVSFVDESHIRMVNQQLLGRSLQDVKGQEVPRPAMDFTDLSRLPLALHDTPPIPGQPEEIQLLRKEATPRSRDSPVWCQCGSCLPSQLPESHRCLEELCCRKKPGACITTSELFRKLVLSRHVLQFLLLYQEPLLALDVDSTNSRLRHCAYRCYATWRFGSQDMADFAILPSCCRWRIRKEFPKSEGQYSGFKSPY

[2] = target: rat P2X7 (Rattus norvegicus (Rat), UniProt Q64663); assay: Ca2+ flux (FLIPR) in 1321N1 cells expressing recombinant rat P2X7 channel; type: cell-based; conditions: 250 μM BzATP;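 also: Calcium-4 dye fluorescence change read 180 s after agonist addition, following 30 min cell preincubation with test compound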
Chain of rat P2X7 (Q64663 whole entry): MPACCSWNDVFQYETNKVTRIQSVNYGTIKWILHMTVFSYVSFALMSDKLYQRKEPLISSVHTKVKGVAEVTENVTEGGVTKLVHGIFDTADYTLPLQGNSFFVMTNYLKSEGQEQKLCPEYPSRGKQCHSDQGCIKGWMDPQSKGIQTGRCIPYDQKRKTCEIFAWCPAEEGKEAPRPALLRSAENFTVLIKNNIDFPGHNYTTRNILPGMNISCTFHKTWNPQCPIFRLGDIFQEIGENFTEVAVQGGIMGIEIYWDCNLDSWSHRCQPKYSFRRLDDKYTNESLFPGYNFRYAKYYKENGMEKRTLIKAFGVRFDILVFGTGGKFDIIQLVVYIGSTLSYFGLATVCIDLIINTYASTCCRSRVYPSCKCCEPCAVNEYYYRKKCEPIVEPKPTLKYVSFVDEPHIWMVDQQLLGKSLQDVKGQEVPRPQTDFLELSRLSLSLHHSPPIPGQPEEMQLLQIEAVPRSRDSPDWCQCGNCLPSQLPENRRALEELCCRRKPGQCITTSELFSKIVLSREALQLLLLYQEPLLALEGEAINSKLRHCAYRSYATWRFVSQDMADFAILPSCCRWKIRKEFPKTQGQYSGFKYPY
Experimental: Cells were seeded at a density of 25000 cells/well (96-well clear bottom black walled plates) in 100 μl volume/well. On the day of the experiment, cell plates were washed with assay buffer, containing (in mM): 130 NaCl, 2 KCl, 1 CaCl2, 1 MgCl2, 10 HEPES, 5 glucose; pH 7.40 and 300 mOs. After the wash, cells were loaded with the Calcium-4 dye (Molecular Device) and incubated in the dark for 60 minutes. Test compounds were prepared at 250× the test concentration in neat DMSO. Intermediate 96-well compound plates were prepared by transferring 1.2 μL of the compound into 300 μL of assay buffer. A further 3× dilution occurred when transferring 50 μL/well of the compound plate to 100 μL/well in the cell plate. Cells were incubated with test compounds and dye for 30 minutes. […] The fluorescence change was measured 180 seconds after adding the agonist.

[3] = target: T1, P2X7; assay: Ca2+ flux (FLIPR) in 1321N1 cells expressing recombinant human P2X7 channel; type: cell-based; conditions: 250 μM BzATP;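 also: Calcium-4 dye-loaded cells exposed to compound for 30 min before agonist addition, fluorescence change read 180 s after agonist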
[4] = target: T1, P2X7; assay: Radioligand binding, tritiated A-804598, human P2X7-1321N1 cell membranes; conditions: 1 hour at 4° C.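 Also: ki obtained from the binding IC50 after correction for tracer concentration and tracer affinity.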
Experimental: On the day of the experiment, cell membrane preparations were made according to standard published methods. […] The assay was terminated by filtration (GF/B filters pre-soaked with 0.3% PEI) and washed with washing buffer (Tris-HCl 50 mM). The IC50 generated in the binding assay was corrected for tracer concentration and affinity of the tracer to derive at the affinity (Ki) of the test compounds.

Row | SMILES | PBMC 10 μM (% control) [1] | IC50 [2] | IC50 [3] | Ki [4] | PBMC 1 μM (% control) [1]
1 | C[C@H]1c2nnn(-c3cccc(F)n3)c2CCN1C(=O)c1cccc(C(F)(F)F)c1Cl (single isomer, unassigned) [Example 147, (S*)-(2-Chloro-3-(trifluoromethyl)phenyl)(1-(6-fluoropyridin-2-yl)-4-methyl-6,7-dihydro-1H-[1,2,3]triazolo[4,5-c]pyridin-5(4H)-yl)methanone] | −8.9 % control | 507 nM | 11.3 nM | 39.8 nM | –
2 | C[C@H]1Cc2c(nnn2-c2ncccn2)CN1C(=O)c1cccc(C(F)(F)F)c1Cl (single isomer, unassigned) [Example 222, (6S*)-5-{[2-Chloro-3-(trifluoromethyl)phenyl]carbonyl}-6-methyl-1-pyrimidin-2-yl-4,5,6,7-tetrahydro-1H-[1,2,3]triazolo[4,5-c]pyridine] | 11.8 % control | 1 nM | 1.1 nM | 25.1 nM | –
3 | Cc1cccc(-n2nnc3c2CCN(C(=O)c2cccc(C(F)(F)F)c2Cl)[C@H]3C)n1 (single isomer, unassigned) [Example 227, (S*)-(2-chloro-3-(trifluoromethyl)phenyl)(4-methyl-1-(6-methylpyridin-2-yl)-6,7-dihydro-1H-[1,2,3]triazolo[4,5-c]pyridin-5(4H)-yl)methanone] | −0.4 % control | 10.2 nM | 7.2 nM | 20 nM | –
4 | C[C@@H]1c2nnn(-c3ncccn3)c2CCN1C(=O)c1cccc(C(F)(F)F)c1F (single isomer, unassigned) [Example 271, (R*)-(2-fluoro-3-(trifluoromethyl)phenyl)(4-methyl-1-(pyrimidin-2-yl)-6,7-dihydro-1H-[1,2,3]triazolo[4,5-c]pyridin-5(4H)-yl)methanone] | −3.7 % control | 11.1 nM | 3.3 nM | 5.9 nM | –
5 | O=C(c1cccc(C(F)(F)F)c1Cl)N1CCc2c(ncn2-c2ccccc2)C1 [Example 2, (2-Chloro-3-(trifluoromethyl)phenyl)(1-phenyl-6,7-dihydro-1H-imidazo[4,5-c]pyridin-5(4H)-yl)methanone] | – | 1940 nM | 18.4 nM | 87.1 nM | 7.9 % control
6 | O=C(c1cccc(Cl)c1Cl)N1CCc2c(ncn2-c2ccccn2)C1 [Example 4, (2,3-Dichlorophenyl)(1-(pyridin-2-yl)-6,7-dihydro-1H-imidazo[4,5-c]pyridin-5(4H)-yl)methanone] | −3.7 % control | 2570 nM | 46.5 nM | 25.1 nM | –
7 | O=C(c1cccc(C(F)(F)F)c1Cl)N1CCc2c(ncn2-c2ccn[nH]2)C1 [Example 5, (1-(1H-Pyrazol-5-yl)-6,7-dihydro-1H-imidazo[4,5-c]pyridin-5(4H)-yl)(2-chloro-3-(trifluoromethyl)phenyl)methanone] | 11.6 % control | 324 nM | 12.4 nM | 31.6 nM | –
8 | CC1c2ncn(-c3ccc(F)cc3)c2CCN1C(=O)c1cccc(C(F)(F)F)c1F (stereo not drawn) [Example 20, (2-Fluoro-3-(trifluoromethyl)phenyl)(1-(4-fluorophenyl)-4-methyl-6,7-dihydro-1H-imidazo[4,5-c]pyridin-5(4H)-yl)methanone] | 8.6 % control | 2370 nM | 931 nM | 501 nM | –
9 | CCOC(=O)C1c2ncn(-c3ccccn3)c2CCN1C(=O)c1cccc(C(F)(F)F)c1Cl (stereo not drawn) [Example 24, Ethyl 5-(2-chloro-3-(trifluoromethyl)benzoyl)-1-(pyridin-2-yl)-4,5,6,7-tetrahydro-1H-imidazo[4,5-c]pyridine-4-carboxylate] | – | 34.2 nM | 35 nM | 91.2 nM | 2.9 % control
10 | CCOC(=O)C1c2ncn(-c3ccccn3)c2CCN1C(=O)c1cccc(Cl)c1Cl (stereo not drawn) [Example 25, Ethyl 5-(2,3-dichlorobenzoyl)-1-(pyridin-2-yl)-4,5,6,7-tetrahydro-1H-imidazo[4,5-c]pyridine-4-carboxylate] | – | 3270 nM | 111 nM | 74.1 nM | 9.7 % control
11 | CCOC(=O)C1c2ncn(-c3ccccc3)c2CCN1C(=O)c1cccc(C(F)(F)F)c1Cl (stereo not drawn) [Example 26, Ethyl 5-(2-chloro-3-(trifluoromethyl)benzoyl)-1-phenyl-4,5,6,7-tetrahydro-1H-imidazo[4,5-c]pyridine-4-carboxylate] | – | 71 nM | 9.8 nM | 85.1 nM | 14.0 % control
12 | CCOC(=O)C1c2ncn(-c3cnccn3)c2CCN1C(=O)c1cccc(Cl)c1Cl (stereo not drawn) [Example 29, Ethyl 5-[(2,3-dichlorophenyl)carbonyl]-1-pyrazin-2-yl-4,5,6,7-tetrahydro-1H-imidazo[4,5-c]pyridine-4-carboxylate] | – | 2070 nM | 79.8 nM | 38 nM | 34.7 % control
13 | CN(C)CC1c2ncn(-c3ccccn3)c2CCN1C(=O)c1cccc(C(F)(F)F)c1Cl (stereo not drawn) [Example 31, 1-(5-{[2-Chloro-3-(trifluoromethyl)phenyl]carbonyl}-1-pyridin-2-yl-4,5,6,7-tetrahydro-1H-imidazo[4,5-c]pyridin-4-yl)-N,N-dimethylmethanamine] | – | 107 nM | 156 nM | 316 nM | 50.8 % control
14 | CN(C)C(=O)C1c2ncn(-c3ccccn3)c2CCN1C(=O)c1cccc(C(F)(F)F)c1Cl (stereo not drawn) [Example 34, 5-{[2-Chloro-3-(trifluoromethyl)phenyl]carbonyl}-N,N-dimethyl-1-pyridin-2-yl-4,5,6,7-tetrahydro-1H-imidazo[4,5-c]pyridine-4-carboxamide] | – | 158 nM | 158 nM | 631 nM | 29.8 % control
15 | O=C(C1c2ncn(-c3ccccn3)c2CCN1C(=O)c1cccc(C(F)(F)F)c1Cl)N1CCC1 (stereo not drawn) [Example 35, 4-(Azetidin-1-ylcarbonyl)-5-{[2-chloro-3-(trifluoromethyl)phenyl]carbonyl}-1-pyridin-2-yl-4,5,6,7-tetrahydro-1H-imidazo[4,5-c]pyridine] | – | 316 nM | 316 nM | 316 nM | 31.6 % control
16 | Cn1nc(-c2ccccc2)c2c1CN(C(=O)c1cccc(Cl)c1Cl)CC2 [Example 103, 6-[(2,3-Dichlorophenyl)carbonyl]-1-methyl-3-phenyl-4,5,6,7-tetrahydro-1H-pyrazolo[3,4-c]pyridine] | – | – | 392 nM | 275 nM | 56.0 % control
17 | O=C(c1cccc(C(F)(F)F)c1Cl)N1CCc2c(-c3ccc(F)cc3)n[nH]c2C1 [Example 110, 6-{[2-Chloro-3-(trifluoromethyl)phenyl]carbonyl}-3-(4-fluorophenyl)-4,5,6,7-tetrahydro-2H-pyrazolo[3,4-c]pyridine] | – | – | 10 nM | 182 nM | −15.1 % control
18 | O=C(c1cccc(C(F)(F)F)c1Cl)N1CCc2c(nnn2-c2ccccc2OCCF)C1 [Example 126, (2-Chloro-3-(trifluoromethyl)phenyl)(1-(2-(2-fluoroethoxy)phenyl)-6,7-dihydro-1H-[1,2,3]triazolo[4,5-c]pyridin-5(4H)-yl)methanone] | – | – | 85.5 nM | 93.3 nM | 71.7 % control
19 | O=C(c1cccc(C(F)(F)F)c1Cl)N1CCc2c(nnn2-c2cccc(F)n2)C1 [Example 135, (2-Chloro-3-(trifluoromethyl)phenyl)(1-(6-fluoropyridin-2-yl)-6,7-dihydro-1H-[1,2,3]triazolo[4,5-c]pyridin-5(4H)-yl)methanone] | 1.7 % control | – | 48.2 nM | 100 nM | –
20 | CC1Cc2c(nnn2-c2cc(F)ccn2)CN1C(=O)c1cccc(C(F)(F)F)c1Cl (stereo not drawn) [Example 176, (2-Chloro-3-(trifluoromethyl)phenyl)(1-(4-fluoropyridin-2-yl)-6-methyl-6,7-dihydro-1H-[1,2,3]triazolo[4,5-c]pyridin-5(4H)-yl)methanone] | 7.3 % control | – | 8 nM | 31.6 nM | –
21 | CC1c2nnn(-c3ncco3)c2CCN1C(=O)c1cccc(C(F)(F)F)c1Cl (stereo not drawn) [Example 250] | −1.3 % control | – | 8.6 nM | 39.8 nM | –
22 | CC1c2ncn(-c3ccc(F)cn3)c2CCN1C(=O)c1ccc(F)c(Cl)c1Cl (stereo not drawn) [Example 261, (2,3-dichloro-4-fluorophenyl)(1-(5-fluoropyridin-2-yl)-4-methyl-6,7-dihydro-1H-imidazo[4,5-c]pyridin-5(4H)-yl)methanone] | −3.1 % control | – | 19.4 nM | 36.3 nM | –
23 | Cc1c(C(=O)N2CCc3c(ncn3-c3ccc(F)cn3)C2C)cccc1C(F)(F)F (stereo not drawn) [Example 263, (1-(5-fluoropyridin-2-yl)-4-methyl-6,7-dihydro-1H-imidazo[4,5-c]pyridin-5(4H)-yl)(2-methyl-3-(trifluoromethyl)phenyl)methanone] | −1.6 % control | – | 16.1 nM | 55 nM | –
24 | Cc1c(C(=O)N2CCc3c(ncn3-c3ccc(F)cn3)C2)cccc1C(F)(F)F [Example 312, (1-(5-fluoropyridin-2-yl)-6,7-dihydro-1H-imidazo[4,5-c]pyridin-5(4H)-yl)(2-methyl-3-(trifluoromethyl)phenyl)methanone] | 9.5 % control | – | 157 nM | 39.8 nM | –
25 | Cc1nc2c(n1-c1ccccc1)CCN(C(=O)c1cccc(Cl)c1Cl)C2 [Example 331, (2,3-dichlorophenyl)(2-methyl-1-phenyl-6,7-dihydro-1H-imidazo[4,5-c]pyridin-5(4H)-yl)methanone] | −11.0 % control | – | 148 nM | 178 nM | –
